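Here, GI50 denotes the concentration required for 50% inhibition of growth. TGI: concentration producing complete growth inhibition.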
How the values were obtained:
Assay in all cases: DTP human tumour cell line panel, 384-well format
HCC-2998 colon = test system: HCC-2998 colon
RXF 393 renal = test system: RXF 393 renal
MDA-MB-468 breast = test system: MDA-MB-468 breast
NCI-H23 lung = test system: NCI-H23 lung
OVCAR-5 ovarian = test system: OVCAR-5 ovarian
SK-MEL-2 melanoma = test system: SK-MEL-2 melanoma
HCT-15 colon = test system: HCT-15 colon
MCF7 breast = test system: MCF7 breast
TK-10 renal = test system: TK-10 renal
SF-539 CNS = test system: SF-539 CNS
NCI-H322M lung = test system: NCI-H322M lung
PC-3 prostate = test system: PC-3 prostate
NCI-H226 lung = test system: NCI-H226 lung

With `CNCc1ccc(C)c(NC(=O)c2ccc(Nc3nc(-c4ccccc4)c4ccccc4n3)cc2)c1` the GI50 (HCC-2998 colon) was 1280 nM, the TGI (HCC-2998 colon) was 2550 nM and the GI50 (RXF 393 renal) was 1460 nM. The TGI (RXF 393 renal) was 2790 nM, the GI50 (MDA-MB-468 breast) was 1710 nM and the TGI (MDA-MB-468 breast) was 3090 nM. It also gave a GI50 (NCI-H23 lung) of 1830 nM, a TGI (NCI-H23 lung) of 3270 nM and a GI50 (OVCAR-5 ovarian) of 2040 nM. For the same compound, the TGI (OVCAR-5 ovarian) was 3990 nM, the GI50 (SK-MEL-2 melanoma) was 1810 nM and the TGI (SK-MEL-2 melanoma) was 3210 nM. The GI50 (HCT-15 colon) was 1050 nM, the TGI (HCT-15 colon) was 2390 nM and the GI50 (MCF7 breast) was 1480 nM. The TGI (MCF7 breast) was 2850 nM, the GI50 (TK-10 renal) was 1810 nM and the TGI (TK-10 renal) was 3290 nM. It also gave a GI50 (SF-539 CNS) of 1710 nM, a TGI (SF-539 CNS) of 3100 nM and a GI50 (NCI-H322M lung) of 1740 nM. The TGI (NCI-H322M lung) was 3140 nM, the GI50 (PC-3 prostate) was 1690 nM and the TGI (PC-3 prostate) was 3160 nM. The GI50 (NCI-H226 lung) was 1880 nM and the TGI (NCI-H226 lung) was 3360 nM.
